Experimental data from paper PMC9841532, “Exploring the Effect of Halogenation in a Series of Potent and Selective A2B Adenosine Receptor Antagonists” (Journal of Medicinal Chemistry, 2022).

Experiments:
hA1AR = target: T1, hA1AR (Homo sapiens, UniProt P30542); assay: Radioligand binding competition, [3H]DPCPX, membranes from CHO-A1 cells; details: 1 μM, [3H]DPCPX, human CHO cells, n = 2
T1 sequence (P30542 1-326): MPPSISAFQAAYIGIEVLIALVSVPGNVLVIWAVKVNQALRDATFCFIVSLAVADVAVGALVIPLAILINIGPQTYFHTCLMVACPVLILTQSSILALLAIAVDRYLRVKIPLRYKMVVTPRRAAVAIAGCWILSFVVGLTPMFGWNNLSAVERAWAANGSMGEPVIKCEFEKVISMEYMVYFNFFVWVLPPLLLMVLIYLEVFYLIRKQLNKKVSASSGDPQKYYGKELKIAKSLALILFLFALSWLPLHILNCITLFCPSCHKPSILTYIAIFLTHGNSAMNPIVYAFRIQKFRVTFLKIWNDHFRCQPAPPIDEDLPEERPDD
Procedure: (§1) All ligands reported in Tables 1–5 were obtained and tested as racemic mixtures. The whole set was evaluated in silico with a combination of a Rdkit[37] PAINS filter and Instant JChem from Chemaxon (https://www.chemaxon.com), to rule out the possibility that these ligands can be promiscuous pan-assay interference compounds (PAINS) and to assess their bioavailability, respectively. […] The stereoisomers of selected compounds were obtained by chiral resolution and tested at the four human AR subtypes in their enantiopure forms (Table 6).
(§2) A brief description is given below. […] Non-specific binding was determined in the presence of 10 μM R-PIA. The reaction mixture was incubated at 25 °C for 60 min. […] The reaction mixture was incubated at 25 °C for 30 min. […] The reaction mixture was incubated at 25 °C for 30 min. […] Non-specific binding was determined in the presence of 100 μM R-PIA. […] After the incubation time, membranes were washed and filtered and radioactivity was detected in a MicroBeta TriLux reader (PerkinElmer).

hA3AR = target: T2, hA3AR (Homo sapiens, UniProt P0DMS8); assay: Radioligand binding competition, [3H]NECA, membranes from HeLa-A3 cells; details: for % at 1 μM hA3 (percentage displacement of specific binding): [3H]NECA, human HeLa cells, n = 2
T2 construct: expressed in transfected cells; host or cells: HeLa (HeLa-A3) cell membranes
T2 sequence (P0DMS8 1-318): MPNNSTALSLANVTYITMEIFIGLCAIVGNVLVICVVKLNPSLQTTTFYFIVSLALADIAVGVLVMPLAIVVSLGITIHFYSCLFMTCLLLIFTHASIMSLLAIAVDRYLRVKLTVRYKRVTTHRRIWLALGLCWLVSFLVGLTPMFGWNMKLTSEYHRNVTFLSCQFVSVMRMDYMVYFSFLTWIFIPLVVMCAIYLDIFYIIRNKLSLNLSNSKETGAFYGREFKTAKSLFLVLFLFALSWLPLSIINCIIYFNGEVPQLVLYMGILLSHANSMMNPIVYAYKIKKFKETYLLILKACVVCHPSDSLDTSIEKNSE
Procedure: as §1, §2

hA2AAR = target: T3, hA2AAR (Homo sapiens, UniProt P29274); assay: Radioligand binding competition, [3H]ZM241385, membranes from HeLa-A2A cells; details: 1 μM, [3H]ZM241385, human HeLa cells, n = 2
T3 construct: expressed in transfected cells; host or cells: HeLa (HeLa-A2A) cell membranes
Procedure: as §1, §2

hA2BAR = target: T4, hA2BAR (Homo sapiens, UniProt P29275); assay: Radioligand binding competition, [3H]DPCPX, membranes from HEK-293-A2B cells; parameters: Exp. dG: unit not given here; details: for Ki: read-out: Ki hA2B; for % at 1 μM hA2B (percentage displacement of specific binding): [3H]DPCPX, human HEK-293 cells, n = 2
T4 construct: host or cells: HEK-293 (HEK-293-A2B) cell membranes
T4 sequence (P29275 1-332): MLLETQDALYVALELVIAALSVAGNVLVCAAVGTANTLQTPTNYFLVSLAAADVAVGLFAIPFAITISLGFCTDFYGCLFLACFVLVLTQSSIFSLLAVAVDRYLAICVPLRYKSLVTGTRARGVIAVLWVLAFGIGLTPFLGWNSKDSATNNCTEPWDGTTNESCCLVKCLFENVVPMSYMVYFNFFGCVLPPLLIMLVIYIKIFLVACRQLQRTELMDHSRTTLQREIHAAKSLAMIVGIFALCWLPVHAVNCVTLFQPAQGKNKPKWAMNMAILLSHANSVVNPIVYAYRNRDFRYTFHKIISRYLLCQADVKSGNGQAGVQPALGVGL
Procedure: as §1, §2

[1] = displacement of specific [3H]DPCPX binding in human HEK-293 cells, n = 3

T3 sequence (P29274 whole entry): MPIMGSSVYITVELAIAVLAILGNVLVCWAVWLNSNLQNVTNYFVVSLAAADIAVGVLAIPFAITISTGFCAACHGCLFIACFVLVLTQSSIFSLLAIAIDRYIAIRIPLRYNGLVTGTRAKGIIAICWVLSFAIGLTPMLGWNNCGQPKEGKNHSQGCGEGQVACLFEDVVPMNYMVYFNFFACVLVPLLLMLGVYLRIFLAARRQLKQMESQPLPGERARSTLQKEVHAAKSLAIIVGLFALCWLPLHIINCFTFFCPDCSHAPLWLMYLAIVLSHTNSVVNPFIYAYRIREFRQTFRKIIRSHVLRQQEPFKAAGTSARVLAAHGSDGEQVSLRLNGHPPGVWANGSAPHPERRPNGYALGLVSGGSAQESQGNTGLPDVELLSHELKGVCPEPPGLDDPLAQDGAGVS

Row | % at 1 μM hA1 (percentage displacement of specific binding) (hA1AR) [%] | % at 1 μM hA3 (percentage displacement of specific binding) (hA3AR) [%] | % at 1 μM hA2A (percentage displacement of specific binding) (hA2AAR) [%] | Ki (hA2BAR; [1]) [nM] | % at 1 μM hA2B (percentage displacement of specific binding) (hA2BAR) [%] | Ki hA2B (hA2BAR; [1]) | Exp. dG (hA2BAR; experimental binding free energy, Supplementary Table S3, unit not given (errors in kcal/mol)) | SMILES | Ki (hA3AR; displacement of specific [3H]NECA binding in human HeLa cells, n = 3, read-out: Ki hA3) [nM]
1 | 1 | 2 | 2 | 44.1 ± 1.7 | – | – | – | CCOC(=O)C1=C(C)Nc2nc3cc(F)c(F)cc3n2C1c1ccco1 (stereo not shown) [14a] | –
2 | 22 | 17 | 36 | 28.2 ± 0.8 | – | – | – | CCOC(=O)C1=C(C)Nc2nc3cc(F)c(F)cc3n2C1c1ccoc1 (stereo not shown) [14c] | –
3 | 17 | 20 | 16 | 52.9 ± 1.5 | – | – | – | CC1=C(C(=O)OC(C)C)C(c2ccoc2)n2c(nc3cc(F)c(F)cc32)N1 (stereo not shown) [14d] | –
4 | 2 | 5 | 3 | – | 25 | – | – | CCOC(=O)C1=C(C)Nc2nc3cc(F)c(F)cc3n2C1c1cccs1 (stereo not shown) [14e] | –
5 | 1 | 10 | 1 | – | 1 | – | – | CC1=C(C(=O)OC(C)C)C(c2cccs2)n2c(nc3cc(F)c(F)cc32)N1 (stereo not shown) [14f] | –
6 | 1 | 5 | 1 | 519 ± 7 | – | – | – | CCOC(=O)C1=C(C)Nc2nc3cc(F)c(F)cc3n2C1c1ccsc1 (stereo not shown) [14g] | –
7 | 1 | 4 | 3 | – | 43 | – | – | CC1=C(C(=O)OC(C)C)C(c2ccsc2)n2c(nc3cc(F)c(F)cc32)N1 (stereo not shown) [14h] | –
8 | 2 | 1 | 5 | – | 9 | – | – | CCOC(=O)C1=C(C)Nc2nc3cc(Cl)c(Cl)cc3n2C1c1ccco1 (stereo not shown) [14i] | –
9 | 43 | 7 | 12 | 117 ± 5 | – | – | – | CC1=C(C(=O)OC(C)C)C(c2ccco2)n2c(nc3cc(Cl)c(Cl)cc32)N1 (stereo not shown) [14j] | –
10 | 33 | 6 | 34 | 54.7 ± 3.2 | – | – | – | CCOC(=O)C1=C(C)Nc2nc3cc(Cl)c(Cl)cc3n2C1c1ccoc1 (stereo not shown) [14k] | –
11 | 4 | 8 | 31 | – | 36 | – | – | CC1=C(C(=O)OC(C)C)C(c2ccoc2)n2c(nc3cc(Cl)c(Cl)cc32)N1 (stereo not shown) [14l] | –
12 | 2 | 11 | 1 | – | 9 | – | – | CCOC(=O)C1=C(C)Nc2nc3cc(Cl)c(Cl)cc3n2C1c1cccs1 (stereo not shown) [14m] | –
13 | 1 | 9 | 4 | – | 1 | – | – | CC1=C(C(=O)OC(C)C)C(c2cccs2)n2c(nc3cc(Cl)c(Cl)cc32)N1 (stereo not shown) [14n] | –
14 | 5 | 1 | 1 | – | 9 | – | – | CCOC(=O)C1=C(C)Nc2nc3cc(Cl)c(Cl)cc3n2C1c1ccsc1 (stereo not shown) [14o] | –
15 | 2 | 6 | 1 | 359 ± 4 | – | – | – | CC1=C(C(=O)OC(C)C)C(c2ccsc2)n2c(nc3cc(Cl)c(Cl)cc32)N1 (stereo not shown) [14p] | –
16 | 1 | 2 | 17 | – | 37 | – | – | CCOC(=O)C1=C(C)Nc2nc3cc(Br)c(Br)cc3n2C1c1ccco1 (stereo not shown) [14q] | –
17 | 11 | 21 | 28 | 62.6 ± 1.9 | – | – | – | CC1=C(C(=O)OC(C)C)C(c2ccco2)n2c(nc3cc(Br)c(Br)cc32)N1 (stereo not shown) [14r] | –
18 | 2 | 10 | 2 | – | 7 | – | – | CCOC(=O)C1=C(C)Nc2nc3cc(Br)c(Br)cc3n2C1c1ccoc1 (stereo not shown) [14s] | –
19 | 1 | 9 | 1 | – | 32 | – | – | CC1=C(C(=O)OC(C)C)C(c2ccoc2)n2c(nc3cc(Br)c(Br)cc32)N1 (stereo not shown) [14t] | –
20 | 2 | 5 | 7 | – | 12 | – | – | CCOC(=O)C1=C(C)Nc2nc3cc(Br)c(Br)cc3n2C1c1cccs1 (stereo not shown) [14u] | –
21 | 1 | 3 | 1 | – | 9 | – | – | CC1=C(C(=O)OC(C)C)C(c2cccs2)n2c(nc3cc(Br)c(Br)cc32)N1 (stereo not shown) [14v] | –
22 | 2 | 4 | 7 | – | 47 | – | – | CCOC(=O)C1=C(C)Nc2nc3cc(Br)c(Br)cc3n2C1c1ccsc1 (stereo not shown) [14w] | –
23 | 10 | 14 | – | 1.17 ± 0.1 | – | – | – | CCOC(=O)C1=C(C)Nc2nc3cc(Br)ccc3n2[C@@H]1c1ccoc1 [(R)-16s] | –
24 | 26 | 12 | – | 0.94 ± 0.1 | – | sub-nanomolar | – | CC1=C(C(=O)OC(C)C)[C@@H](c2ccco2)n2c(nc3cc(F)ccc32)N1 [(S)-16b] | –
25 | 32 | 6 | – | 2.97 ± 0.4 | – | – | – | CC1=C(C(=O)OC(C)C)[C@@H](c2ccco2)n2c(nc3cc(Br)ccc32)N1 [(S)-16r] | –
26 | – | – | – | – | – | – | -10.04 | CC1=C(C(=O)OC(C)C)C(c2cocn2)n2c(nc3ccccc32)N1 (stereo not shown) [X, reference compound] | –
27 | – | – | – | – | – | – | – | Nc1nc(NCCc2ccc(O)cc2)nc2nc(-c3ccco3)nn12 [ZM241385, 4-(2-[7-amino-2-(2-furyl)[1,2,4]triazolo[2,3-a][1,3,5]triazin-5-ylamino]ethyl)phenol, reference compound] | 863 ± 4
